≈ marks a conversion by molar mass, not a printed value. Like-named read-outs stand apart in the source and are kept apart here.
Assays:
[1] = tested on: endotoxin (LPS)-induced uveitis; test: Endotoxin-induced uveitis in rats (in vivo assay vi); set-up: species or system Lewis rats; conditions: eyes of LPS-stimulated rats, topical, 1 mg/mL
Method: Male, Lewis rats (6-8 weeks old, Charles River UK Limited) are housed in cages of 3 at 19-21° C. with a 12 h light/dark cycle (07:00/19:00) and fed a standard diet of rodent chow and water ad libitum. […] Untreated rats are injected with PBS. […] Before administration, the solution or suspension to be administered is agitated for 5 minutes to ensure a uniform suspension. 6 hours after LPS dosing, animals are euthanized by overdose with pentobarbitone (i.v.). Following euthanasia, the right eye of each animal is enucleated and dissected into front (anterior) and back (posterior) sections around the lens. Each section is weighed and homogenised in 500 μL of sterile phosphate buffered saline followed by 20 minutes centrifugation at 12000 rpm at 4° C. The resulting supernatant is divided into 3 aliquots and stored at −80° C. until subsequent cytokine analysis by R&D DuoSet ELISA.

[2] = biological target: p38 MAPKα isoform (MAPK14) (Homo sapiens (Human), UniProt Q16539); test: p38 MAPKα enzyme inhibition (FRET, Z-LYTE, Method 2); format: biochemical
Outline: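 Z-LYTE FRET: p38 MAPKα (80 ng/mL for Method 1, 200 ng/mL for Method 2, pre-dilution) preincubated 2 hr RT with compound (4–0.004 μg/mL solutions), activity read via MAPKAP-K2 phosphorylation after 1 hr RT and 1 hr protease development. Coumarin/fluorescein ratio gives phosphorylation; % inhibition versus uninhibited control, IC50 from concentration-response curve.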

c-Src = c-Src (Homo sapiens (Human), UniProt P12931); test: c-Src enzyme inhibition (FRET, Z-LYTE); format: biochemical
Outline: (§1)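 Z-LYTE FRET read-out uses protease cleavage of unphosphorylated peptide, and the donor/acceptor ratio reflects phosphorylation. Kinase stocks (c-Src 3000, Syk 2000 ng/mL) were preincubated 2 hr RT with compound stocks of 0.004–4 μg/mL. Peptide and ATP solutions (c-Src 800 μM, Syk 60 μM) were then added for 1 hr. IC50 was taken from concentration-response.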

Syk = Syk (Homo sapiens (Human), UniProt P43405); test: Syk enzyme inhibition (FRET, Z-LYTE); format: biochemical
Outline: as §1

GSK 3α = GSK 3α (Homo sapiens (Human), UniProt P49840); test: GSK 3α enzyme inhibition (FRET, Z-LYTE, Method 2); format: biochemical; conditions: read-out: IC50 Values for Enzyme Inhibition, GSK3α
Outline: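 Human GSK3α (500 ng/mL) preincubated with compound (4, 0.4, 0.04 or 0.004 μg/mL) at RT for 2 h (Method 1) or 105 min (Method 2). Then FRET peptide (8 μM) and ATP (40 μM) added for 1 h, followed by protease development for 1 h. IC50 from the coumarin/fluorescein emission ratio relative to uninhibited control.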

PBMCs [3] = test: LPS-induced IL-8 release in PBMC cells (assay b); format: cell-based, human; conditions: Homo sapiens, PBMC; LPS-stimulated PBMCs; read-out: IC50 Values for Inhibition of Cytokine Release, PBMCs IL-8
Outline: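 Cytokines (TNFα, IL-8) in supernatants were quantified by sandwich ELISA after a 24 h challenge with 1 ng/mL E. coli LPS at 37° C, 5% CO2. Healthy-donor PBMCs had been exposed to compound for 2 h beforehand. IC50 values were fitted from the concentration-response curves.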

PBMCs [4] = test: IL-2 release in CD3/CD28 stimulated PBMC cells (assay c); format: cell-based; conditions: Homo sapiens, read-out: IC50 Values for Inhibition of Cytokine Release, PBMCs IL-2
Outline: (§2)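 Healthy-donor PBMCs (density-gradient isolated) stimulated on plates pre-coated with anti-CD3 (0.3 μg/mL) and anti-CD28 (3 μg/mL), with compound, for 3 days under normal culture conditions. IL-2 and IFN gamma in supernatants measured by sandwich ELISA; IC50 from dose-response curve.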

PBMCs [5] = test: IFN gamma release in CD3/CD28 stimulated PBMC cells (assay c); format: cell-based; conditions: Homo sapiens, read-out: IC50 Values for Inhibition of Cytokine Release, PBMCs IFNγ
Outline: as §2

HT29 cells = test: IL-1β-induced IL-8 release in HT29 cells (assay d); format: cell-based; conditions: Homo sapiens, HT-29; IL-1β-stimulated HT29 cells; read-out: IC50 Values for Inhibition of Cytokine Release, HT29 cells IL-8
Method: HT29 cells, a human colon adenocarcinoma cell line, are plated in a 96 well plate (24 hrs) and pre-treated with compounds at the desired concentration for 2 hours before addition of 5 ng/mL of IL-1β (Abcam) for 24 hours. Supernatants are harvested for IL-8 quantification by Sandwich ELISA (Duo-set, R&D System). The IC50 is determined from the dose response curve.

PBMCs [6] = test: Cell mitosis assay in PBMCs (assay g); format: cell-based; conditions: Homo sapiens, PBMC, test compound 5 μg/mL
Outline: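 Metaphase arrest with 0.1 μg/mL demecolcine during the final 2 hr of a 20 hr compound exposure, which follows 48 hr of 2% PHA stimulation of healthy-donor human PBMCs. Mitotic lymphocytes counted by flow cytometry (anti-phospho-histone 3 plus propidium iodide). Inhibition expressed relative to 0.5% DMSO.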

[7] = Solubility in fasted-state simulated colonic fluid (FaSSCoF); format: physicochemical; conditions: thermodynamic from solid, pH 6.5, 25° C.; for solubility thermodynamic at 24 h: 25 °C, pH 6.5, fassgf or other biorelevant
Method: The solubilities of compounds of the invention in FaSSCoF at pH 6.5 are determined using a modification of a previously-reported procedure (Vertzoni, M., et al. Pharm. Res. 2010, 27, 2187-2196). In place of the bile salt extract employed in the original procedure (which extract is no longer available), the modified procedure uses a mixture of sodium taurochlorate (0.15 g), glycocholic acid (0.15 g), ursodeoxycholic acid (0.05 g), cholic acid (0.05 g), and glycodeoxycholic acid (0.05 g). These five bile acids are ground together with a mortar and pestle to produce a fine white powder that is incorporated into the FaSSCoF, as outlined below.
Tris(hydroxymethyl)aminomethane (Tris; 0.275 g) and maleic acid (0.44 g) are dissolved in water (35 mL) to give a solution whose pH is adjusted to 6.5 by treatment with 0.5M NaOH (ca. 12 mL). The solution is then made up to 50 mL with water. A portion of this Tris/maleate buffer solution (ca. 25 mL) is added to a 0.5 L round-bottomed flask, before being treated with 0.00565 g of the bile acid mixture described above. Solutions of phosphatidylcholine (0.0111 g) in DCM (0.15 mL) and palmitic acid (0.0013 g) in DCM (0.15 mL) are added, then the organic solvent is evaporated off under reduced pressure at 40° C. until a clear solution, with no perceptible DCM odour, is achieved. The volume of the evaporated solution is adjusted to 50 mL by addition of the remainder of Tris/maleate buffer, then BSA (0.115 g) is added, before being dissolved by gentle agitation.
Test compounds are suspended in the pH 6.5 FaSSCoF medium to give a maximum final concentration of ca. 6 mg/mL. The suspensions are equilibrated at 25° C. for 24 h, before being filtered through a glass fibre C filter. The filtrates are then diluted as appropriate for injection and quantification by HPLC with reference to a standard. Different volumes of the standard, diluted and undiluted sample solutions are injected and the solubilities are calculated using the peak areas determined by integration of the peak found at the same retention time as the principal peak in the standard injection.

Chain of c-Src (P12931 whole entry, looked up): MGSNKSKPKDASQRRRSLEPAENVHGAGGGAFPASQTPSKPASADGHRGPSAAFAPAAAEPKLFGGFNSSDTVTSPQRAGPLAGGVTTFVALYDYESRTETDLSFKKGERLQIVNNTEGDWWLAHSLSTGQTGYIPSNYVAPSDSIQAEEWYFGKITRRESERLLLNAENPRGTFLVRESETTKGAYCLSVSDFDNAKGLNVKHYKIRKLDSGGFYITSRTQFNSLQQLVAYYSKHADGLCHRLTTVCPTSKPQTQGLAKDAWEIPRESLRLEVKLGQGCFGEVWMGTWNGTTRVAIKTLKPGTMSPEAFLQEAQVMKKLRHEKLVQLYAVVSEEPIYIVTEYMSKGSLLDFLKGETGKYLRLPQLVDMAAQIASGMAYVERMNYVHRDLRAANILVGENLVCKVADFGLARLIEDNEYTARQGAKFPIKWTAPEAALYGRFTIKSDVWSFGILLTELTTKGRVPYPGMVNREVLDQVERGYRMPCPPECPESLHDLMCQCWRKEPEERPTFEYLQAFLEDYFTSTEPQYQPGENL
Chain of GSK 3α (P49840 whole entry): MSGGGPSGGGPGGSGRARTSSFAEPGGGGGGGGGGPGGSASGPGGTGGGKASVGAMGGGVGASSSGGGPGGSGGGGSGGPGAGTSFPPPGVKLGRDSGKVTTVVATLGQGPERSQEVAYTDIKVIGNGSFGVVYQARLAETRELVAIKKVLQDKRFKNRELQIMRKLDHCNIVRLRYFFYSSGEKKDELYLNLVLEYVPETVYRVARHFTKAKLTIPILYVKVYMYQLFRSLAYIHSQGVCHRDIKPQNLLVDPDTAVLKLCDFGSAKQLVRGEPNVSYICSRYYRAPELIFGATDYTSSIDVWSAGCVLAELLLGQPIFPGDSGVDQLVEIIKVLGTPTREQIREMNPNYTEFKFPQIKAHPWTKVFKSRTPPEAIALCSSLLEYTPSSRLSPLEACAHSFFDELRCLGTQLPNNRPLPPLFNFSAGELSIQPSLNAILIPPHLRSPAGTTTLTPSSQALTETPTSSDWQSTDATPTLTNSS
Chain of p38 MAPKα isoform (MAPK14) (Q16539 whole entry, canonical isoform): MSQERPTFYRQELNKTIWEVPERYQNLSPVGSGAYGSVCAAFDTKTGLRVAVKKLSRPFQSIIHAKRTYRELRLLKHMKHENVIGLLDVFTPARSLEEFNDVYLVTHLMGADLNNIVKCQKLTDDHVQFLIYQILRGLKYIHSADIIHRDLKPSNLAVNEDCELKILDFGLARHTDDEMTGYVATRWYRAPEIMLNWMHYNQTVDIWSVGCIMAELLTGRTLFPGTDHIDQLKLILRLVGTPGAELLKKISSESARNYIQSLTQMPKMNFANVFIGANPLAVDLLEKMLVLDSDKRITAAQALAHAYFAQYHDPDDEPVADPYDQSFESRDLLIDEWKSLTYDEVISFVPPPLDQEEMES

| IC50 [2] [nM] | IC50 (c-Src) [nM] | IC50 (Syk) [nM] | IC50 (GSK 3α) [nM] | IC50 (HT29 cells) [nM] | solubility thermodynamic at 24 h ([7]; Run 1, read-out: pH 6.5 FaSSCoF Solubility Run 1) [µg/mL] | solubility thermodynamic at 24 h ([7]; Run 2, read-out: pH 6.5 FaSSCoF Solubility Run 2) [µg/mL] | solubility at 24 h ([7]; fassgf or other biorelevant, read-out: Solubility in the FaSSCoF medium) [µg/mL] | SMILES | Cell counts [1] | IC50 (PBMCs [3]) [nM] | IC50 (PBMCs [4]) [nM] | IC50 (PBMCs [5]) [nM] | inhibition at 5 µg/mL (PBMCs [6]) [%] |
| --- | --- | --- | --- | --- | --- | --- | --- | --- | --- | --- | --- | --- | --- |
|  |  |  |  |  |  |  |  | C[C@@H]1C[C@H]2[C@@H]3CCC4=CC(=O)C=C[C@]4(C)[C@@]3(F)[C@@H](O)C[C@]2(C)[C@@]1(O)C(=O)CO [Dexamethasone, dexamethasone, reference compound] | 30.1 ± 6.4 |  |  |  |  |
| 25 | 25 | 996 | 2060 | 2.8 |  |  |  | COc1cc(Nc2cc(Oc3ccc(NC(=O)Nc4cc(C(C)(C)C)cc([S+](C)[O-])c4OC)c4ccccc34)ccn2)cc(C(=O)NCCN2CCOCC2)c1 (centres unmarked) [Example 46, 3-((4-((4-(3-(5-(tert-Butyl)-2-methoxy-3-(methylsulfinyl)phenyl)ureido)naphthalen-1-yl)oxy)pyridin-2-yl)amino)-5-methoxy-N-(2-morpholinoethyl)benzamide] |  | 0.8 | 47.3 | 2.8 | 45.8 |
| 36 | 34 | > 1510 | 1460 | 26.1 |  |  |  | COc1cc(Nc2cc(Oc3ccc(NC(=O)Nc4cc(C(C)(C)C)cc(CC(N)=O)c4OC)c4ccccc34)ccn2)cc(C(N)=O)c1 [Example 47, 3-((4-((4-(3-(3-(2-Amino-2-oxoethyl)-5-(tert-butyl)-2-methoxyphenyl)ureido)naphthalen-1-yl)oxy)pyridin-2-yl)amino)-5-methoxybenzamide] |  | 2.2 | 57.1 | 3 | 30.1 |
|  |  |  |  |  | 15 (≈ 18.9 µM) | 16 (≈ 20.2 µM) | > 10 | COc1cc(Nc2cc(Oc3ccc(NC(=O)Nc4cc(C(C)(C)C)cc([S+](C)[O-])c4OC)c4ccccc34)ccn2)cc(C(=O)NCCN2CCN(C)CC2)c1 (centres unmarked) [Example 84, 3-((4-((4-(3-(5-(tert-Butyl)-2-methoxy-3-(methylsulfinyl)phenyl)ureido)naphthalen-1-yl)oxy)pyridin-2-yl)amino)-5-methoxy-N-(2-(4-methylpiperazin-1-yl)ethyl)benzamide] |  | 1.8 |  |  |  |

From US9890185B2, “Urea derivatives useful as kinase inhibitors” (Respivert Limited, priority 2013, dated 2018)
